# Patent US20210361733A1, “Prevention and Treatment of SARS-CoV-2 Infection by Mentha piperita and Flos chrysanthemi Extracts alone, and their Combination” (priority 2021, published 2021)
# “Also recorded” adds a separate entry of the source.
# Columns and labels:
# SARS-CoV-2 [1] = assay type: cell-based
# Vero cell line = assay: Cytotoxicity of herbal extracts on Vero cell line, MTT assay; details: concentration not printed
# SARS-CoV-2 [2] = details: prophylactic/therapeutic (full-time) setting, at 37° and 4° C., by CPE and RT-PCR; cited from earlier work
Structure (SMILES),"viral load inhibition (increasing Cq value, decreasing percent viral copy number) (SARS-CoV-2 [1]; reference drugs: Chloroquine phosphate 9.69 μM/mL, Remdesivir 8.297 μM/mL)",inhibition of SARS-CoV-2 (SARS-CoV-2 [1]; viral full entry and post entry treatment points),cytotoxicity / percent inhibition (MTT assay) (Vero cell line),cytotoxicity / percent inhibition (MTT assay) (Vero cell line; listed as Chloroquine),antiviral activity (SARS-CoV-2 [2])
CCN(CC)CCCC(C)Nc1ccnc2cc(Cl)ccc12 (stereo not drawn) [Chloroquine phosphate],viral load inhibition,inhibition of SARS-CoV-2,non-toxic,no inhibition,–
CCC(CC)COC(=O)[C@H](C)N[P@](=O)(OC[C@H]1O[C@@](C#N)(c2ccc3c(N)ncnn23)[C@H](O)[C@@H]1O)Oc1ccccc1 [Remdesivir],–,–,no inhibition; also recorded: non-toxic,–,–
CCN(CCO)CCCC(C)Nc1ccnc2cc(Cl)ccc12 (stereo not drawn) [hydroxychloroquine],–,–,–,–,significant antiviral activity
